Drawing on US11427637B2, “Methods of treating PD-L1 expressing cancer” (Mayo Foundation for Medical Education and Research, priority 2016, dated 2022), this text covers median survival and Kd for one substance.

Experiment [1] concerns PD-L1 positive C8161 melanoma tumor cells. As to the kind of experiment: In vivo efficacy, C8161 melanoma tumors in athymic nude mice. The following applies: one IV tail vein injection; atezolizumab 18 mg/kg, ABX 45 mg/kg, AA130 = 18 mg/kg atezolizumab and 45 mg/kg ABX. How it is done: Athymic nude mice (Harlan Sprague Dawley) were injected with 2×10^6 PD-L1 positive C8161 melanoma tumor cells. The tumors were allowed to grow until about 600 mm^3 and were treated by 100 μl IV tail vein injection with saline, atezolizumab alone (18 mg/kg), ABX alone (45 mg/kg) and AA130 (18 mg/kg atezolizumab and 45 mg/kg ABX) one time (FIGS. 5A-5D). Tumor growth was monitored 3 times/week. Tumor size was calculated with the equation: (length×width^2)/2.
Kaplan Meier curves were generated using Graph Pad software. The median survival for each group was 14, 13, 16, and 21.5 days for saline, atezolizumab, ABX and AA130, respectively. Survival differences between AA130 and all other groups were significant with p-values of 0.0008 for saline, 0.0015 for atezolizumab, and 0.0113 for Abraxane.

The target in experiment [2] is T1, ABX (Homo sapiens, UniProt P02768).
T1 construct: purchased Celgene Corp
As to the kind of experiment: Biolayer interferometry (BLItz) binding of atezolizumab to ABX. The following applies: biotinylated atezolizumab on streptavidin probe; ABX 100, 500, 1000 μg/mL in 1×PBS; read-out: Kd (binding affinity between atezolizumab and ABX). The protocol: To determine whether atezolizumab and ABX are capable of interacting to form nanoparticle complexes, Biolayer interferometry (BLItz) (Forte Bioscience) was performed using streptavidin probes. 100 ug/ml of biotinylated atezolizumab in 1×PBS was bound to the streptavidin probe. After washing unbound atezolizumab from the probe, the antibody-bound probe was exposed to ABX at concentrations of 100, 500, 1000 μg/mL in 1×PBS. An antibody probe exposed to PBS was used as background and background was subtracted. BLItz software was used to calculate dissociation constants (FIG. 1).
(BLI is a label-free optical method that tracks binding on a fibre tip over time.)

“atezolizumab: fully humanized, Fc-modified monoclonal antibody of IgG1 isotype against PD-L1” showed a median survival in experiment [1] of 13 days. Further, in experiment [2], the Kd (as a rule, the concentration at which binding is half-saturated) is 1.46 nM.
